The target of data set [1] is T1, Human CCR5 receptor (Homo sapiens, UniProt P51681).
T1 construct: expressed in transfected cells
The data set can be described thus: Human CCR5 receptor-ligand binding assay (125I RANTES displacement). The following applies: 0.1 nM 125I RANTES, CHO-Gα16-hCCR5 cells, RT 2 h. The text has this: Human CCR5 receptor (Genebank ID: 29169292) was cloned into mammalian expression vector, pTarget (Promega). The construct was transfected into CHO-Gα16 cells by using Fugene Reagent (Roche). Clones were selected under antibiotic pressure (G418 and Hygromycin) and sorted 4 times with a fluorescence activates cell sorter and a monoclonal antibody specific for CCR5 receptor (BD Biosciences Pharmigen, Mab 2D7, Cat. No. 555993). The clone with highest expression (100,000 copies per cell) was chosen for the binding assays.
Adherent cells in […] tissue culture flask (˜90% confluent) were harvested using 1 mM EDTA in PBS (phosphate-buffered saline) without Ca^2+ and Mg^2+. Cells were washed twice with PBS containing no Ca^2+ and Mg^2+. CHO-Gα16-hCCR5 cells were then resuspended (1×10^6/ml) in ice cold binding buffer (50 mM HEPES, 1 mM CaCl2, 5 mM MgCl2, 0.5% BSA, 0.05% NaN3, pH 7.24), pH 7.4), supplemented with freshly made 0.5% BSA and 0.05% NaN3.
Eighty μl CHO-Gα16-hCCR5 (1×10^6/ml) cells were added to 96 well plates. All dilutions were made in binding buffer (50 mM HEPES, 1 mM CaCl2, 5 mM MgCl2, 0.5% BSA, 0.05% NaN3, pH 7.24).
The plates were incubated on a cell shaker at RT for 2 h with a final concentration of 0.1 nM ^125I RANTES or ^125I MIP-1α or ^125I MIP-1β. The compound dilutions were made in PBS, 1% BSA. Total reaction volume was 100 μl per well. The test compounds were added to the cells prior to the addition of radioligand.
After incubation, the cells were harvested onto GF/C filter plates using Packard cell harvester. Filters were pretreated with 0.3% PEI/0.2% BSA for 30 min. The filter plate was washed rapidly 5 times with 25 mM HEPES, 500 mM NaCl, 1 mM CaCl2 and 5 mM MgCl2 adjusted to pH 7.1. Plates were dried in oven (70° C.) for 20 min, added with 40 μl scintillation fluid and sealed with Packard TopSeal-A. Packard Top Count was used to measure of the radioactivity for 1 min per well.
Total binding was determined with control wells added with radioisotope and buffer and the non-specific binding was determined using an excess cold RANTES to some of the control wells. Specific binding was determined by subtracting the non-specific form total binding. Results are expressed as the percentage of specific ^125I RANTES binding. IC50 values were determined using varying concentrations of the test ligand in triplicates and the data was analyzed using GraphPad Prism (GraphPad, San Diego, Calif.).

Structures are written as SMILES. Structures can show the parent of a compound that is named as a salt.

This passage reports melting point and IC50 results from US7714018B2, “Heterocyclic antiviral compounds” (Roche Palo Alto LLC, priority 2004, dated 2010).

As usually defined, the melting point is the temperature of the solid-liquid transition. By IC50 is commonly meant the concentration needed to halve the response being measured. A high value points to lower potency.

T1 sequence (P51681 whole entry): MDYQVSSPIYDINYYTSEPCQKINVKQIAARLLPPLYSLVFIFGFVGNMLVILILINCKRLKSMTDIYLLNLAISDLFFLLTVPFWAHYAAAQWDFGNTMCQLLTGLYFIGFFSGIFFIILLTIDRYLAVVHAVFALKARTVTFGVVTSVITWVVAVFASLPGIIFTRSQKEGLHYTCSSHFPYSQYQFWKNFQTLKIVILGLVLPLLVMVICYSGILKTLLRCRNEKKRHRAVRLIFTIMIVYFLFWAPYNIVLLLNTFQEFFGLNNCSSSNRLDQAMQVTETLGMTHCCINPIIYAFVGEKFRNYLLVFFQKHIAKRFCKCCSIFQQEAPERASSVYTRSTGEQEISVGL

Take `Cc1cccc(C)c1C(=O)N1C[C@H]2CN(CCC(NC(=O)C3CCCC3)c3ccccc3)C[C@H]2C1` (stereo partly drawn) [Compound I-3, Cyclopentanecarboxylic acid {3-[5-(2,6-dimethyl-benzoyl)-hexahydro-pyrrolo[3,4-c]pyrrol-2-yl]-1-phenyl-propyl}-amide]: the melting point fell in the range of 60.9 to 63.9 °C. As to `Cc1ncnc(C)c1C(=O)N1CC2CN(CCC(NC(=O)C3CCCC3)c3ccccc3)CC2C1` (stereo not drawn) [Compound I-29, Cyclopentanecarboxylic acid {3-[5-(4,6-dimethyl-pyrimidine-5-carbonyl)-hexahydro-pyrrolo[3,4-c]pyrrol-2-yl]-1-phenyl-propyl}-amide], the melting point was 48 to 49 °C. In addition, the concentration for half-maximal inhibition (IC50) in data set [1] was determined as 0.016 µM. As to `Cc1ccnc(C)c1C(=O)N1CC2CN(CC[C@H](NC(=O)C3CCCC3)c3ccccc3)CC2C1` (stereo partly drawn) [Compound I-78], the melting point was in the range of 68.8 to 73.6 °C. In data set [1], the 50% inhibitory concentration (IC50) was 0.037 µM.

`Cc1cccc(C)c1C(=O)N1CC2CN(C(CO)CC(NC(=O)C3CCCC3)c3ccccc3)CC2C1` (stereo not drawn) [Compound I-360, Cyclopentanecarboxylic acid {3-[5-(2,6-dimethyl-benzoyl)-hexahydro-pyrrolo[3,4-c]pyrrol-2-yl]-4-hydroxy-1-phenyl-butyl}-amide] gave a melting point of 78.9 to 84.9 °C.

`Cc1ncnc(C)c1C(=O)N1CC2CN(CCC(NC(=O)C3CCC(F)(F)CC3)c3ccccc3)CC2C1` (stereo not drawn) [Compound I-435, 4,4-Difluoro-cyclohexanecarboxylic acid {3-[5-(4,6-dimethyl-pyrimidine-5-carbonyl)-hexahydro-pyrrolo[3,4-c]pyrrol-2-yl]-1-phenyl-propyl}-amide] registered a melting point of 131.8 to 133.2 °C.

In turn, `Cc1ncnc(C)c1C(=O)N1CC2CN(C(C)CC(NC(=O)C3CCC(F)(F)CC3)c3ccccc3)CC2C1` (stereo not drawn) [Compound I-448, 4,4-Difluoro-cyclohexanecarboxylic acid {3-[5-(4,6-dimethyl-pyrimidine-5-carbonyl)-hexahydro-pyrrolo[3,4-c]pyrrol-2-yl]-1-phenyl-butyl}-amide] displayed a melting point of 71.3 to 72.9 °C.

With `Cc1ncnc(C)c1C(=O)N1CC2CN(C(C)C[C@H](NC(=O)C3CCC(F)(F)CC3)c3ccccc3)CC2C1` (stereo partly drawn) [Compound I-449], the melting point fell in the range of 86.4 to 87 °C. The compound also registered an IC50 in data set [1] of 0.001 µM. Regarding `Cc1nc(OCC(=O)O)nc(C)c1C(=O)N1CC2CN(CC[C@H](NC(=O)C3CCCC3)c3ccccc3)CC2C1` (stereo partly drawn) [Compound I-466], the IC50 in data set [1] came to 0.011 µM.

Turning to `CC(=O)N1CCC(C(=O)N(CCCN2C[C@@H]3CN(C(=O)c4c(C)cccc4C)C[C@@H]3C2)c2ccc(C)c(Cl)c2)CC1` [II-1, 1-Acetyl-piperidine-4-carboxylic acid (3-chloro-4-methyl-phenyl)-{3-[5-(2,6-dimethyl-benzoyl)-hexahydro-pyrrolo[3,4-c]pyrrol-2-yl]-propyl}], the melting point is 58.1 to 65.2 °C. Moreover, the 50% inhibitory concentration (IC50) in data set [1] came out at 0.0042 µM.

Take `CC(=O)N1CCC(C(=O)N(CCCN2CC3CN(C(=O)c4c(C)ccnc4C)CC3C2)c2ccc(C)c(Cl)c2)CC1` (stereo not drawn) [II-3, 1-Acetyl-piperidine-4-carboxylic acid (3-chloro-4-methyl-phenyl)-{3-[5-(2,4-dimethyl-pyridine-3-carbonyl)-hexahydro-pyrrolo[3,4-c]pyrrol-2-yl]-propyl}-amide]: the melting point was in the range of 91.8 to 96.9 °C. Besides, in data set [1], the concentration for half-maximal inhibition (IC50) was found to be 0.0184 µM. Take `CC(=O)N1CCC(C(=O)N(CCC(C)N2CC3CN(C(=O)c4c(C)ccnc4C)CC3C2)c2ccc(C)c(Cl)c2)CC1` (stereo not drawn) [II-36, 1-Acetyl-piperidine-4-carboxylic acid (3-chloro-4-methyl-phenyl)-{3-[5-(2,4-dimethyl-pyridine-3-carbonyl)-hexahydro-pyrrolo[3,4-c]pyrrol-2-yl]-butyl}-amide]: the melting point lay in the range of 60.9 to 62.4 °C. The compound `Cc1ccc(N(CCCN2C[C@@H]3CN(C(=O)c4c(C)ccnc4C)C[C@@H]3C2)C(=O)Nc2ccc(Cl)cc2)cc1` [II-203, 3-(4-Chloro-phenyl)-1-{3-[(3aS,6aR)-5-(2,4-dimethyl-pyridine-3-carbonyl)-hexahydro-pyrrolo[3,4-c]pyrrol-2-yl]-propyl}-1-p-tolyl-urea] gave a melting point of 60.5 to 62.5 °C. In turn, `Cc1ccc(N(CCCN2CC3CN(C(=O)c4c(C)cccc4C)CC3C2)C(=O)C2CCS(=O)(=O)CC2)cc1Cl` (stereo not drawn) [II-279] yielded a melting point of 101.3 to 102.7 °C. Besides, in data set [1], the half-inhibitory concentration (IC50) is 0.0015 µM. Regarding `Cc1ccc(N(CCCN2CC3CN(C(=O)c4c(C)ncnc4C)CC3C2)C(=O)C2CCN(C(=O)C(=O)O)CC2)cc1Cl` (stereo not drawn) [II-303, [4-((3-Chloro-4-methyl-phenyl)-{3-[5-(4,6-dimethyl-pyrimidine-5-carbonyl)-hexahydro-pyrrolo[3,4-c]pyrrol-2-yl]-propyl}-carbamoyl)-piperidin-1-yl]-oxo-acetic acid, hydrochloride salt], in data set [1], the concentration for half-maximal inhibition (IC50) was 0.102 µM. As to `CCOC(=O)c1[nH]c(C)c(S(=O)(=O)N2CC3CN(CCCN(C(=O)C4CCN(C(C)=O)CC4)c4ccc(C)c(Cl)c4)CC3C2)c1C` (stereo not drawn) [II-355], the half-maximal inhibitory concentration (IC50) in data set [1] amounted to 0.0027 µM.
